Results on three compounds are retold here after patent publication US4870207A, “Synthesis of arphamenine A” (Zaiden Hojin Biseibutsu Kagaku Kenkyu Kai, priority 1983, dated 1989).

The structures appear in SMILES notation. Read-outs that look alike come from different tables or passages of the source.

Experiment [1] relates to Delayed-Type Hypersensitivity (D.T.H.). Put plainly: Delayed-Type Hypersensitivity (D.T.H.) technique, cell-mediated immunopotentiating activity. It is filed as in vivo. From the text: Accordingly, they are useful as an immunopotentiating agent.
The target in a further experiment is T1, aminopeptidase B (Rattus norvegicus, UniProt O09175).
T1 sequence (O09175 1-650): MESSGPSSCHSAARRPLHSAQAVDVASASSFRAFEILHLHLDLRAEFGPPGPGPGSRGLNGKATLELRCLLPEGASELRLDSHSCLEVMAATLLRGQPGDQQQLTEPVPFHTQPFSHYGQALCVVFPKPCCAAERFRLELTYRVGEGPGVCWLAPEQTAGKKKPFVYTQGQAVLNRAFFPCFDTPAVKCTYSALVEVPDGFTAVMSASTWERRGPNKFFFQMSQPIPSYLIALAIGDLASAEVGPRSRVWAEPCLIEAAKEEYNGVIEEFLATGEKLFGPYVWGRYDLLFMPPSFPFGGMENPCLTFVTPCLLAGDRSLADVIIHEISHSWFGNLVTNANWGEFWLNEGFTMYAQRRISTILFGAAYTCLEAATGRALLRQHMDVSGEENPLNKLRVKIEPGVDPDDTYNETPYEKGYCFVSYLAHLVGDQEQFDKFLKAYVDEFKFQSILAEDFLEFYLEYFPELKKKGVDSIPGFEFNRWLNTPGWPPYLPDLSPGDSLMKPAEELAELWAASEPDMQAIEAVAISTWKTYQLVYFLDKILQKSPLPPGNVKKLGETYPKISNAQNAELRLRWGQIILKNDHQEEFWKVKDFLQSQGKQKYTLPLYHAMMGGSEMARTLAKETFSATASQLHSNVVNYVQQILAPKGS
Put plainly: Aminopeptidase B-inhibitory activity. Format: biochemical. The conditions noted are these: modification of the method of Hoppusu. As to the method:
The aminopeptidase B-inhibitory activities (IC50) described above were determined by a modification of the method of Hoppusu disclosed in the specification of U.S. Pat. No. 4,595,698.

The conditions of experiment [2]: background statement, see U.S. Pat. No. 4,595,698; cited from earlier work.
The conditions of experiment [3]: background statement, see U.S. Pat. No. 4,595,698; cited from earlier work. This is another data set of the same source.

In the case of `N=C(N)NCCC[C@H](N)C(=O)C[C@H](Cc1ccccc1)C(=O)O` [Substance (I"), epi-arphamenine A], the cell-mediated immunopotentiating activity entry in experiment [1] is “exhibit a cell-mediated immunopotentiating activity”.

As for `N=C(N)NCCC[C@H](N)C(=O)C[C@@H](Cc1ccccc1)C(=O)O` [Substance (I'), arphamenine A], half-maximal inhibition against aminopeptidase B (IC50) was put at 0.0218 µM. For the same compound, the cell-mediated immunopotentiating activity result in experiment [1] (listed as (Ia)) is recorded as “exhibit a cell-mediated immunopotentiating activity”.

For `N=C(N)NCCC[C@H](N)C(=O)C[C@@H](Cc1ccccc1)C(=O)O` [naturally occuring arphamenine A, arphamenine A], the immunopotentiating activity result in experiment [2] was “shows an immunopotentiating activity”. The IC50 (in general, the concentration that gives 50% inhibition) on aminopeptidase B is 0.0156 µM. The analgesic activity entry in experiment [3] is reported as “an analgesic activity”.
